Experimental findings from ChEMBL document CHEMBL6071142, “Isoalantolactone/hydroxamic acid hybrids as potent dual STAT3/HDAC inhibitors and self-assembled nanoparticles for cancer therapy” (Eur J Med Chem, 2024) are described below.

The term Kd denotes a measure of binding affinity in units of concentration. In general, IC50 refers to the midpoint of a concentration-inhibition curve.

Assay [1] addresses Signal transducer and activator of transcription 3 (Homo sapiens, UniProt P40763). Nature of the assay: Binding affinity to STAT3 (unknown origin) assessed as dissociation constant by SPR assay. In general terms: Surface plasmon resonance follows binding to a sensor surface in real time, without labels.
Assay [2] concerns A549. Nature of the assay: Induction of apoptosis in human A549 cells assessed as viable cells at 2 uM incubated for 24 hrs by Annexin V-FITC/PI staining based flow cytometric analysis (reference value: 95.08%). It is filed as functional. For orientation: Flow cytometry measures light scatter and fluorescence of single cells or particles in a stream.
In assay [3] the test system is A549. Nature of the assay: Induction of apoptosis in human A549 cells assessed as early apoptotic cells at 2 uM incubated for 24 hrs by Annexin V-FITC/PI staining based flow cytometric analysis (reference value: 1.53%). It is filed as functional.
Assay [4] deals with A549. Nature of the assay: Induction of apoptosis in human A549 cells assessed as late apoptotic cells at 2 uM incubated for 24 hrs by Annexin V-FITC/PI staining based flow cytometric analysis (reference value: 2.18%). In kind it is functional.
Assay [5] relates to A549. Nature of the assay: Induction of apoptosis in human A549 cells assessed as necrotic cells at 2 uM incubated for 24 hrs by Annexin V-FITC/PI staining based flow cytometric analysis (reference value: 1.20%). It is filed as functional.
Assay [6] relates to A549. Nature of the assay: In vivo antitumor activity against human A549 cells xenografted in female BALB/c nu/nu mouse assessed as tumor volume at 10 mg/kg, iv administered every 3 days and measured on 18 day relative to control. It is filed as functional. Conditions: time 3 day.
The test system of another assay is HCT-116. Nature of the assay: cells. Conditions: Homo sapiens, HCT-116, 72 h.
The target of another assay is Histone deacetylase 1 (Homo sapiens, UniProt Q13547). Nature of the assay: Inhibition of recombinant human HDAC1 using Boc-Lys (acetyl)-AMC as substrate preincubated with compound for 1 hr followed by substrate addition and measured after 30 mins by microplate reader assay.
Sequence of Histone deacetylase 1 (Q13547 whole entry): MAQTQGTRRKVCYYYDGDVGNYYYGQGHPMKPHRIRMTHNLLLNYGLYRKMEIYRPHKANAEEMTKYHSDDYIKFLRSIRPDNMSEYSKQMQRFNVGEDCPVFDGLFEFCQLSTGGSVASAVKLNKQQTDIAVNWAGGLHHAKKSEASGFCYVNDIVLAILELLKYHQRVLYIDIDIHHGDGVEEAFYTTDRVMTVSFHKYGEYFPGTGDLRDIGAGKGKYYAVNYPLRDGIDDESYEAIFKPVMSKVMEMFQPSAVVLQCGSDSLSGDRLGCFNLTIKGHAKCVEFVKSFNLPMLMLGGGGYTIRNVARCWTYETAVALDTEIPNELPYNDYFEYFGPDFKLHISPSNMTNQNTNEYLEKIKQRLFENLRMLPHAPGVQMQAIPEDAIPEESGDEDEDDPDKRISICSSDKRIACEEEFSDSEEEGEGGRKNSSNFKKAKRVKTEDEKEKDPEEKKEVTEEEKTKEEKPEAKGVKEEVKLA
In another assay the target is Histone deacetylase 2 (Homo sapiens, UniProt Q92769). Nature of the assay: Inhibition of recombinant human HDAC2 using Boc-Lys (acetyl)-AMC as substrate preincubated with compound for 1 hr followed by substrate addition and measured after 30 mins by microplate reader assay.
Sequence of Histone deacetylase 2 (Q92769 whole entry): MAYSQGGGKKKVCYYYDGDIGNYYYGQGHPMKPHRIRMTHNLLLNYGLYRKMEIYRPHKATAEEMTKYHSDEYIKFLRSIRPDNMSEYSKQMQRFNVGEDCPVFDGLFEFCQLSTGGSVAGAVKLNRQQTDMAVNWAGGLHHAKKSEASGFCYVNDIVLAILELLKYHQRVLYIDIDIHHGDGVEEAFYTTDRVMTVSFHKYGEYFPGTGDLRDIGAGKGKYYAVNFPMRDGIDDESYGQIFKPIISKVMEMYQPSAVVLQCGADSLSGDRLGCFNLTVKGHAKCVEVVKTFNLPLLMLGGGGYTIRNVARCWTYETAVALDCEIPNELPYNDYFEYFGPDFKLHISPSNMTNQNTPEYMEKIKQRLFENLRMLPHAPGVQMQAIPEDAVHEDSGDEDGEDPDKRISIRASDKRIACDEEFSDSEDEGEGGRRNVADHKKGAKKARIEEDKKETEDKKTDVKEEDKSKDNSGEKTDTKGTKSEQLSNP
A further assay addresses Histone deacetylase 3 (Homo sapiens, UniProt O15379). Nature of the assay: Inhibition of recombinant human HDAC3 using Boc-Lys (acetyl)-AMC as substrate preincubated with compound for 1 hr followed by substrate addition and measured after 30 mins by microplate reader assay.
The target of assay [7] is T1, Protein deacetylase HDAC6 (Homo sapiens, UniProt Q9UBN7).
T1 sequence (Q9UBN7 whole entry): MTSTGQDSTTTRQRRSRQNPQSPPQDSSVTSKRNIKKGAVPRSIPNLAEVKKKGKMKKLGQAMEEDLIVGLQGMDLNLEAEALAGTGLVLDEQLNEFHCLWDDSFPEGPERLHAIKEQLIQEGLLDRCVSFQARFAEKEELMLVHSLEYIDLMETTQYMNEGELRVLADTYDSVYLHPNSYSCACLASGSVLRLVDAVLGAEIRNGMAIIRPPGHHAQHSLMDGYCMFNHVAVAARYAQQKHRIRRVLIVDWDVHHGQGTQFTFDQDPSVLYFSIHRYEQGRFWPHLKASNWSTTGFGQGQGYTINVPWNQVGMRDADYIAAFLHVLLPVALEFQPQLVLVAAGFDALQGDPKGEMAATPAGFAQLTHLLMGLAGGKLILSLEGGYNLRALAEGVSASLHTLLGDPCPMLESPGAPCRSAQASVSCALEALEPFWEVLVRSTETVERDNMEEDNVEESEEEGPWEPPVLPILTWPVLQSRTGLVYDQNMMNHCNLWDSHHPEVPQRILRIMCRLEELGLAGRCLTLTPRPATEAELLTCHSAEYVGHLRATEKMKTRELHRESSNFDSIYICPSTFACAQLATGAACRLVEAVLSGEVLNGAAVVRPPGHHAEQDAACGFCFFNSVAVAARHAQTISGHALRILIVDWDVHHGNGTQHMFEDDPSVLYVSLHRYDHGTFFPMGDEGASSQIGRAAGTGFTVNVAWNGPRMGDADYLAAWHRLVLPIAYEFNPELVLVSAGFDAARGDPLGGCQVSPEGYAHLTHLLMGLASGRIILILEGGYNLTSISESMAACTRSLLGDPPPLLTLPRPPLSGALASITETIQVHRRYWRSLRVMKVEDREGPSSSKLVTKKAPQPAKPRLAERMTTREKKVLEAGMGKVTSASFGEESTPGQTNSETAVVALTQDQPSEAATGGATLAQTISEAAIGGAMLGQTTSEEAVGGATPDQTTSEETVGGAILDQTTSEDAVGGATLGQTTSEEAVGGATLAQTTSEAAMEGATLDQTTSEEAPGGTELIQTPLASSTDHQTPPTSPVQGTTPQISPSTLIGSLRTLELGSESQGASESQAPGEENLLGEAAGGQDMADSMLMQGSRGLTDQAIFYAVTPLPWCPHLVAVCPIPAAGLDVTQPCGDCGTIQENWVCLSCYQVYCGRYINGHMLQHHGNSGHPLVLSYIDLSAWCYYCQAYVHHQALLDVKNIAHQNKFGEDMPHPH
Nature of the assay: Inhibition of recombinant human HDAC6 using Boc-Lys (acetyl)-AMC as substrate preincubated with compound for 1 hr followed by substrate addition and measured after 30 mins by microplate reader assay.

Assay [8] deals with A549. Nature of the assay: cells. It is filed as functional, cell-based. The settings on record: Homo sapiens, A549, 72 h.
Description: Antiproliferative activity against human A549 cells assessed as inhibition of cell proliferation incubated for 72 hrs by CCK-8 assay
In a further assay the test system is HeLa. Nature of the assay: cells. In kind it is functional, cell-based. The settings on record: Homo sapiens, 72 h.
The subject of the next assay is HepG2. Nature of the assay: Antiproliferative activity against human HepG2 cells assessed as inhibition of cell proliferation incubated for 72 hrs by CCK-8 assay. It is filed as functional, cell-based. Conditions: HepG2, 72 h.

Sequence of Signal transducer and activator of transcription 3 (P40763 whole entry): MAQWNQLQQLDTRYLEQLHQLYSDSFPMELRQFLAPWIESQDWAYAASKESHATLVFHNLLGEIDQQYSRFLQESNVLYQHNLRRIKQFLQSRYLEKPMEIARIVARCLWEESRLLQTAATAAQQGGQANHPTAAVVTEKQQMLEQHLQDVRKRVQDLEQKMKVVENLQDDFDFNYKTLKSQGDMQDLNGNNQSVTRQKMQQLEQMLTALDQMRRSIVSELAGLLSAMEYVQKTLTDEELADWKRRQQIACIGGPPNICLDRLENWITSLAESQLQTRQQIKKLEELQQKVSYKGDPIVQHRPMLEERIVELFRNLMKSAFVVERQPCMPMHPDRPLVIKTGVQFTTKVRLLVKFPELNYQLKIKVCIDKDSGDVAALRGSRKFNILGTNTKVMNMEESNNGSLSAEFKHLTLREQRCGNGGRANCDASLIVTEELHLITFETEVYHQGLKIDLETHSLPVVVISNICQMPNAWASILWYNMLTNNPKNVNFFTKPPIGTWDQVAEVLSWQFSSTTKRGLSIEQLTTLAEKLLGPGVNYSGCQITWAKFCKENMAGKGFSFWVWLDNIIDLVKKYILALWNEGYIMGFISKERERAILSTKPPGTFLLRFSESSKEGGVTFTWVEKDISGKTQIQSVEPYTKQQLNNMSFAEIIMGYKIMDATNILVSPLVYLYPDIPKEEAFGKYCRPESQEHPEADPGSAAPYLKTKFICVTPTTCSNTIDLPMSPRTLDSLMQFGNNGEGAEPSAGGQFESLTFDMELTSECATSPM
Sequence of Histone deacetylase 3 (O15379 whole entry): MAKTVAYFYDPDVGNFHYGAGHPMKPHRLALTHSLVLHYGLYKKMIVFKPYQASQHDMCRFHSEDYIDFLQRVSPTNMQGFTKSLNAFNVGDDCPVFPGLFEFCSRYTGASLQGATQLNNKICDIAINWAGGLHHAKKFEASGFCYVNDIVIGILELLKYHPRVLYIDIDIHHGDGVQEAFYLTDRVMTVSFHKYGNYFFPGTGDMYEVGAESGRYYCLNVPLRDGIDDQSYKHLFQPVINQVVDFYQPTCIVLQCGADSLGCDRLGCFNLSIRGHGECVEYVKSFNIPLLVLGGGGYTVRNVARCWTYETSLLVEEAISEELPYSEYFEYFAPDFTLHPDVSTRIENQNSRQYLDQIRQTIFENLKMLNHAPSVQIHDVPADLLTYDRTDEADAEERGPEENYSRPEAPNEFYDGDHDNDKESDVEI
Description for HCT-116: Antiproliferative activity against human HCT-116 cells assessed as inhibition of cell proliferation incubated for 72 hrs by CCK-8 assay
Description for HeLa: Antiproliferative activity against human Hela cells assessed as inhibition of cell proliferation incubated for 72 hrs by CCK-8 assay

On to `O=C(CCCCCCC(=O)Nc1ccccc1)NO` [VORINOSTAT], for which, in [1], the Kd is greater than 50000 nM. Moreover, the Activity in the assay with A549 [2] is recorded as 67.04%; in the assay with A549 [3] it was 5.72%; with A549 [4], 24.68%; in the assay with A549 [5] it was 2.58%; in the assay with A549 [6] it was 61%. In the assay on HCT-116, this compound came in with an IC50 of 1870 nM.

With `C=C1C(=O)O[C@@H]2C[C@@]3(C)CCCC(=C)[C@@H]3C[C@H]12` [ISOALANTOLACTONE], the IC50 is greater than 1000 nM at Histone deacetylase 1; greater than 1000 nM at Histone deacetylase 2; greater than 1000 nM at Histone deacetylase 3; greater than 1000 nM in assay [7]; 1810 nM in the assay on A549 [8]; 4380 nM in the assay on HeLa. In addition, the IC50 in the assay on HepG2 was determined as 7250 nM; in the assay with HCT-116, 2610 nM. Moreover, the dissociation constant Kd in assay [1] came out at 46100 nM. The viability at 2 µM with A549 [2] (Homo sapiens, A549, read-out: Activity) came to 83.6%. For the same compound, the Activity in the assay with A549 [3] is given as 3.67%; with A549 [4], 10.91%; in the assay on A549 [5] it was 1.82%.
